Data taken from PubChem BioAssay (NCI).
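Interpolation was linear, between the two tested concentrations surrounding the appropriate level; five concentrations were tested over 48 hours in 96-well plates. The concentration for full growth arrest is given as TGI.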

How the values were obtained:
Assay in all cases: NCI-60 cell line screen, 48 h
[1] = test system: 786-0 renal
[2] = test system: SNB-19 CNS
[3] = test system: CAKI-1 renal
[4] = test system: SF-539 CNS
[5] = test system: EKVX NSCLC
[6] = test system: M19-MEL melanoma
[7] = test system: KM12 colon
[8] = test system: DMS 273 small cell lung
[9] = test system: UO-31 renal
[10] = test system: NCI-H226 lung
[11] = test system: TK-10 renal
[12] = test system: OVCAR-8 ovarian
[13] = test system: HCT-116 colon
[14] = test system: SNB-78 CNS
[15] = test system: A498 renal
[16] = test system: LXFL 529 NSCLC
[17] = test system: DLD-1 colon
[18] = test system: HL-60(TB) leukemia
[19] = test system: IGROV1 ovarian
[20] = test system: ACHN renal
[21] = test system: OVCAR-4 ovarian
[22] = test system: SF-295 CNS
[23] = test system: NCI-H23 lung
[24] = test system: LOX IMVI melanoma
[25] = test system: SN12C renal
[26] = test system: OVCAR-5 ovarian
[27] = test system: A549 NSCLC
[28] = test system: UACC-62 melanoma
[29] = test system: SF-268 CNS
[30] = test system: RXF 393 renal
[31] = test system: SR leukemia
[32] = test system: COLO 205 colon
[33] = test system: NCI-H460 lung
[34] = test system: HOP-92 NSCLC
[35] = test system: HCC-2998 colon
[36] = test system: SNB-75 CNS
[37] = test system: UACC-257 melanoma
[38] = test system: SK-MEL-28 melanoma
[39] = test system: SK-MEL-5 melanoma
[40] = test system: HT29 colon
[41] = test system: HOP-18 NSCLC
[42] = test system: CCRF-CEM leukemia
[43] = test system: DMS 114 small cell lung
[44] = test system: M14 melanoma
[45] = test system: RPMI-8226 leukemia
[46] = test system: K-562 leukemia
[47] = test system: OVCAR-3 ovarian
[48] = test system: HCT-15 colon
[49] = test system: HOP-62 NSCLC
[50] = test system: MOLT-4 leukemia
[51] = test system: MALME-3M melanoma
[52] = test system: KM20L2 colon
[53] = test system: NCI-H522 lung
[54] = test system: SW-620 colon
[55] = test system: U251 CNS

**Q.** How did the TGI [1] turn out when `COc1cc2c(cc1O)[C@@]1(Cc3ccc(OC)c(OC)c3)CCC(=O)N1CC2` was run?
**A.** > 100 µM

**Q.** And the TGI [2]?
**A.** > 100 µM

**Q.** And the TGI [3]?
**A.** > 100 µM

**Q.** And the TGI [4]?
**A.** > 100 µM

**Q.** And the TGI [5]?
**A.** > 100 µM

**Q.** And the TGI [6]?
**A.** > 100 µM

**Q.** And the TGI [7]?
**A.** > 100 µM

**Q.** And the TGI [8]?
**A.** > 100 µM

**Q.** What about the TGI [9] of the same compound?
**A.** > 100 µM

**Q.** And the TGI [10]?
**A.** > 100 µM

**Q.** And the TGI [11]?
**A.** > 100 µM

**Q.** And the TGI [12]?
**A.** > 100 µM

**Q.** What about the TGI [13] of the same compound?
**A.** > 100 µM

**Q.** And the TGI [14]?
**A.** > 100 µM

**Q.** And the TGI [15]?
**A.** > 100 µM

**Q.** What about the TGI [16] of the same compound?
**A.** > 100 µM

**Q.** And the TGI [17]?
**A.** > 100 µM

**Q.** And the TGI [18]?
**A.** > 100 µM

**Q.** What about the TGI [19] of the same compound?
**A.** > 100 µM

**Q.** What about the TGI [20] of the same compound?
**A.** > 100 µM

**Q.** And the TGI [21]?
**A.** > 100 µM

**Q.** What about the TGI [22] of the same compound?
**A.** > 100 µM

**Q.** And the TGI [23]?
**A.** > 100 µM

**Q.** What about the TGI [24] of the same compound?
**A.** > 100 µM

**Q.** What about the TGI [25] of the same compound?
**A.** > 100 µM

**Q.** What about the TGI [26] of the same compound?
**A.** > 100 µM

**Q.** And the TGI [27]?
**A.** > 100 µM

**Q.** And the TGI [28]?
**A.** > 100 µM

**Q.** And the TGI [29]?
**A.** > 100 µM

**Q.** What about the TGI [30] of the same compound?
**A.** > 100 µM

**Q.** What about the TGI [31] of the same compound?
**A.** > 100 µM

**Q.** What about the TGI [32] of the same compound?
**A.** > 100 µM

**Q.** And the TGI [33]?
**A.** > 100 µM

**Q.** What about the TGI [34] of the same compound?
**A.** 92.4 µM

**Q.** What about the TGI [35] of the same compound?
**A.** > 100 µM

**Q.** What about the TGI [36] of the same compound?
**A.** > 100 µM

**Q.** And the TGI [37]?
**A.** > 100 µM

**Q.** And the TGI [38]?
**A.** > 100 µM

**Q.** And the TGI [39]?
**A.** > 100 µM

**Q.** What about the TGI [40] of the same compound?
**A.** > 100 µM

**Q.** And the TGI [41]?
**A.** > 100 µM

**Q.** And the TGI [42]?
**A.** > 100 µM

**Q.** And the TGI [43]?
**A.** > 100 µM

**Q.** And the TGI [44]?
**A.** > 100 µM

**Q.** What about the TGI [45] of the same compound?
**A.** > 100 µM

**Q.** And the TGI [46]?
**A.** > 100 µM

**Q.** What about the TGI [47] of the same compound?
**A.** > 100 µM

**Q.** What about the TGI [48] of the same compound?
**A.** > 100 µM

**Q.** And the TGI [49]?
**A.** > 100 µM

**Q.** And the TGI [50]?
**A.** > 100 µM

**Q.** And the TGI [51]?
**A.** > 100 µM

**Q.** What about the TGI [52] of the same compound?
**A.** > 100 µM

**Q.** For `COc1ccc(/C=C/C(=O)c2cc(C(=O)O)c(OC)cc2OC)cc1OC`, which TGI [1] is on record?
**A.** > 100 µM

**Q.** And the TGI [2]?
**A.** > 100 µM

**Q.** What about the TGI [53] of the same compound?
**A.** > 100 µM

**Q.** And the TGI [4]?
**A.** > 100 µM

**Q.** What about the TGI [5] of the same compound?
**A.** > 100 µM

**Q.** And the TGI [6]?
**A.** > 100 µM

**Q.** And the TGI [7]?
**A.** > 100 µM

**Q.** What about the TGI [8] of the same compound?
**A.** > 100 µM

**Q.** And the TGI [10]?
**A.** > 100 µM

**Q.** And the TGI [12]?
**A.** > 100 µM

**Q.** What about the TGI [13] of the same compound?
**A.** > 100 µM

**Q.** What about the TGI [14] of the same compound?
**A.** > 100 µM

**Q.** And the TGI [15]?
**A.** > 100 µM

**Q.** What about the TGI [16] of the same compound?
**A.** > 100 µM

**Q.** What about the TGI [17] of the same compound?
**A.** > 100 µM

**Q.** And the TGI [18]?
**A.** > 100 µM

**Q.** And the TGI [19]?
**A.** > 100 µM

**Q.** What about the TGI [20] of the same compound?
**A.** > 100 µM

**Q.** What about the TGI [21] of the same compound?
**A.** > 100 µM

**Q.** And the TGI [22]?
**A.** > 100 µM

**Q.** And the TGI [23]?
**A.** > 100 µM

**Q.** What about the TGI [24] of the same compound?
**A.** > 100 µM

**Q.** What about the TGI [25] of the same compound?
**A.** > 100 µM

**Q.** And the TGI [26]?
**A.** > 100 µM

**Q.** What about the TGI [27] of the same compound?
**A.** > 100 µM

**Q.** What about the TGI [28] of the same compound?
**A.** > 100 µM

**Q.** What about the TGI [29] of the same compound?
**A.** > 100 µM

**Q.** And the TGI [31]?
**A.** > 100 µM

**Q.** What about the TGI [32] of the same compound?
**A.** > 100 µM

**Q.** What about the TGI [33] of the same compound?
**A.** > 100 µM

**Q.** What about the TGI [34] of the same compound?
**A.** > 100 µM

**Q.** What about the TGI [36] of the same compound?
**A.** > 100 µM

**Q.** And the TGI [37]?
**A.** > 100 µM

**Q.** And the TGI [38]?
**A.** > 100 µM

**Q.** What about the TGI [54] of the same compound?
**A.** > 100 µM

**Q.** What about the TGI [39] of the same compound?
**A.** > 100 µM

**Q.** And the TGI [40]?
**A.** > 100 µM

**Q.** And the TGI [41]?
**A.** > 100 µM

**Q.** And the TGI [42]?
**A.** > 100 µM

**Q.** And the TGI [43]?
**A.** > 100 µM

**Q.** What about the TGI [44] of the same compound?
**A.** > 100 µM

**Q.** What about the TGI [45] of the same compound?
**A.** > 100 µM

**Q.** What about the TGI [46] of the same compound?
**A.** > 100 µM

**Q.** And the TGI [48]?
**A.** > 100 µM

**Q.** And the TGI [49]?
**A.** > 100 µM

**Q.** And the TGI [50]?
**A.** > 100 µM

**Q.** And the TGI [52]?
**A.** > 100 µM

**Q.** What about the TGI [55] of the same compound?
**A.** > 100 µM
